For test [1], the target named is T1, recombinant renin in human plasma (Homo sapiens, UniProt P00797).
T1 construct: purchased Proteos
T1 sequence (P00797 67-406): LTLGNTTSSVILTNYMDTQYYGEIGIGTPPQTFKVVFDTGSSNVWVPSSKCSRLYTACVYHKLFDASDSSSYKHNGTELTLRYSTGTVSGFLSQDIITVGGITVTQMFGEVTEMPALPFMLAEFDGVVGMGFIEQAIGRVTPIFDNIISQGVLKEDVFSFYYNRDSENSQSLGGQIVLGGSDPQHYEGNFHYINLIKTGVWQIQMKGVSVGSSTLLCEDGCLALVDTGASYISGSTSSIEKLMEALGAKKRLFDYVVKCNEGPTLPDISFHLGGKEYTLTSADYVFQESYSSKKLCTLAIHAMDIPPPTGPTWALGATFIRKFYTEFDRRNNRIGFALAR
The test can be described thus: Inhibition of renin in human plasma (quenched fluorescent peptide). The class given is biochemical. As to conditions: human EDTA plasma with 1 nM recombinant renin added; 37° C., 1 hour. The procedure: Human EDTA-collected plasma is rapidly thawed in warm water and centrifuged at 2900 g for 15 minutes at 4° C. The supernatant is collected and recombinant renin (Proteos) is added at a final concentration of 1 nM. […] The plate is incubated at 37° C. for 1 hour. […] Background fluorescence at t=0 is subtracted from the measurement at t=1 hour. Inhibitory activity of the compounds is expressed as IC50.

Another test addresses T2, Human recombinant renin (Homo sapiens, UniProt P00797).
T2 construct: purchased Proteos
T2 sequence (P00797 67-406): T1 sequence (P00797 67-406)
In words: Inhibition of human recombinant renin (buffer assay, quenched fluorescent peptide). The class given is biochemical. As to conditions: buffer: 50 mM MOPS pH 7.4, 100 mM NaCl, 0.002% Tween 20; 37° C., 3 hours. As for the experimental part: Background fluorescence at t=0 is subtracted from the measurement at t=3 hours. Inhibitory activity of the compounds is expressed as IC50.

Molecules are shown by their SMILES.

Take `O=C([C@H]1CNCC[C@@]12OCc1cc(F)c(F)cc12)N(Cc1c[nH]c2cccc(F)c12)C1CC1` (relative stereo) [Example 56, (cis-1,3′)-N-cyclopropyl-5,6-difluoro-N-[(4-fluoro-1H-indol-3-yl)methyl]-3H-spiro[2-benzofuran-1,4′-piperidine]-3′-carboxamide]: the IC50 in test [1] was 4.5 nM; at Human recombinant renin, 1.2 nM.

For the compound `COCCc1cc(C)c(C)c(CN(C(=O)[C@H]2CNCC[C@@]23OCc2cc(F)c(F)cc23)C2CC2)c1` (relative stereo) [Example 45, (cis-1,3′)-N-Cyclopropyl-5,6-difluoro-N-[5-(2-methoxyethyl)-2,3-dimethylbenzyl]-3H-spiro[2-benzofuran-1,4′-piperidine]-3′-carboxamide], the IC50 came to 0.6 nM in test [1] and 0.1 nM on Human recombinant renin.

As to `COCCCc1cc(CCCOC)c(Cl)c(CN(C(=O)[C@H]2CNCC[C@@]23OCc2cc(F)c(F)cc23)C2CC2)c1` (relative stereo) [Example 53], the concentration for half-maximal inhibition (IC50) turned out to be 1.3 nM in test [1] and 0.1 nM on Human recombinant renin.

As to `COCCCc1cc(CN(C(=O)[C@H]2CNCC[C@@]23OCc2cc(F)c(F)cc23)C2CC2)c2ncccc2c1` (relative stereo) [Example 54, (cis-1,3′)-N-Cyclopropyl-5,6-difluoro-N-{[6-(3-methoxypropyl)-8-quinolinyl]methyl}-3H-spiro[2-benzofuran-1,4′-piperidine]-3′-carboxamide], the results for the IC50 (in test [1]; on Human recombinant renin) were 3.5 nM and 0.1 nM, respectively.

Regarding `COCCCc1cc(CN(C(=O)[C@H]2CNCC[C@@]23OCc2cc(F)c(F)cc23)C2CC2)c2ccccc2n1` (relative stereo) [Example 48, (cis-1,3′)-N-Cyclopropyl-5,6-difluoro-N-{[2-(3-methoxypropyl)-4-quinolinyl]methyl}-3H-spiro[2-benzofuran-1,4′-piperidine]-3′-carboxamide], the results for the IC50 (in test [1]; at Human recombinant renin) were 2.3 nM and 0.7 nM, respectively.

In general, IC50 refers to the point on the concentration scale where inhibition reaches its midpoint.

Source of the values: patent publication US20120190701A1, “RENIN INHIBITORS” (Merck Sharp & Dohme Corp., priority 2009, published 2012).
